One assay deals with T1, KRAS G12D (Homo sapiens, UniProt P01116, G12D).
T1 construct: aa1-188 KRAS WT, HRAS WT, NRAS WT, or KRAS containing the G12D
Kind of assay: HTRF nucleotide exchange assay, KRAS G12D. It counts as biochemical. The following applies: HTRF nucleotide exchange assay (NEA), class symbols.

A further assay concerns the target T2, KRAS WT (Homo sapiens, UniProt P01116).
T2 construct: aa1-188 KRAS WT
In words: HTRF nucleotide exchange assay, KRAS WT. Type of assay: biochemical. Particulars: class symbols; for pIC50: HTRF nucleotide exchange assay (NEA). A general note: TR-FRET usually uses a lanthanide donor and a delayed reading to cut background.

The structures appear in SMILES notation. pIC50: −log10 of the molar value.

T1 sequence (P01116 1-188 isoform P01116-2 G12D): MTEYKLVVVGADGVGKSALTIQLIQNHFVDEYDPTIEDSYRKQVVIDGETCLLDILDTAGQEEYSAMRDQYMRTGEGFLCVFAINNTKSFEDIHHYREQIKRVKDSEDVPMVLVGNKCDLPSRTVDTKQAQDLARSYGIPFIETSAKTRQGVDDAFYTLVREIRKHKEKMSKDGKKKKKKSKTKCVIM
T2 sequence (P01116 1-188 isoform P01116-2): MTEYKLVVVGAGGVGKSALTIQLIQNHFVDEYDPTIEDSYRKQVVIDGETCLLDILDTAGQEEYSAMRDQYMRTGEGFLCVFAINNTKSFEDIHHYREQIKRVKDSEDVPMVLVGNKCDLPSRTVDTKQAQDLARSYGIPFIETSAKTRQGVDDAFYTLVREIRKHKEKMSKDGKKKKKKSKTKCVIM

As to `CCc1c(F)ccc2cc(O)cc(-c3c(F)c4nc(OCC5(CN6CCC(C#N)C6)CC5)nc(N5CCOCC(C)(O)C5)c4c4cn(C)nc34)c12` (centres unmarked) [Example 170, 1-[[1-[[4-(8-ethyl-7-fluoro-3-hydroxy-1-naphthyl)-5-fluoro-9-(6-hydroxy-6-methyl-1,4-oxazepan-4-yl)-2-methyl-pyrazolo[4,3-f]quinazolin-7-yl]oxymethyl]cyclopropyl]methyl]pyrrolidine-3-carbonitrile], the pIC50 against KRAS G12D and against KRAS WT was at least 8.00 in each case.
Consider `CCc1c(F)ccc2cc(O)cc(-c3c(F)c4nc(OCC5(CN6CCC(F)(F)CC6)CC5)nc(N5CCOCC(C)(O)C5)c4c4cn(C)nc34)c12` (centres unmarked) [Example 229, 4-[7-[[1-[(4,4-difluoro-1-piperidyl)methyl]cyclopropyl]methoxy]-4-(8-ethyl-7-fluoro-3-hydroxy-1-naphthyl)-5-fluoro-2-methyl-pyrazolo[4,3-f]quinazolin-9-yl]-6-methyl-1,4-oxazepan-6-ol], for which the negative logarithm of the IC50 (pIC50) on KRAS G12D and at KRAS WT was at least 8.00 throughout.
For the compound `CN(C)C(=O)c1cc2n(n1)CCCN(c1nc(OC[C@@]34CCCN3C[C@H](F)C4)nc3cc(-c4cc(O)ccc4C(F)(F)F)c4nn(C)cc4c13)C2` (racemic) [Example 64, 5-[4-[5-hydroxy-2-(trifluoromethyl)phenyl]-2-methyl-7-[[rac-(2R,8S)-2-fluoro-1,2,3,5,6,7-hexahydropyrrolizin-8-yl]methoxy]pyrazolo[4,3-f]quinazolin-9-yl]-N,N-dimethyl-4,6,7,8-tetrahydropyrazolo[1,5-a][1,4]diazepine-2-carboxamide], the negative logarithm of the IC50 (pIC50) against KRAS G12D was 7.00 to 8.00; on KRAS WT, 5.00 to 7.00.
In the same order, the values of `CCc1c(F)ccc2cc(O)cc(-c3c(C)c4nc(OC[C@]5(C)CCCN5)nc(N5CCC[C@@](C)(O)C5)c4c4cn(C)nc34)c12` (mixture of isomers) [Example 211, (3R)-1-[4-(8-ethyl-7-fluoro-3-hydroxy-1-naphthyl)-2,5-dimethyl-7-[[rac-(2S)-2-methylpyrrolidin-2-yl]methoxy]pyrazolo[4,3-f]quinazolin-9-yl]-3-methyl-piperidin-3-ol] are at least 8.00 and at least 8.00.
Regarding `CCc1c(F)ccc2cc(O)cc(-c3c(F)c4nc(OC[C@]5(C)CCCN5C)nc(N5CCOCC(C)(O)C5)c4c4cn(C)nc34)c12` (stereo partly drawn) [Example 161, 4-[4-(8-ethyl-7-fluoro-3-hydroxy-1-naphthyl)-5-fluoro-2-methyl-7-[[(2S)-1,2-dimethylpyrrolidin-2-yl]methoxy]pyrazolo[4,3-f]quinazolin-9-yl]-6-methyl-1,4-oxazepan-6-ol], the pIC50 against KRAS G12D and on KRAS WT was at least 8.00 throughout.
At KRAS G12D, `C#Cc1c(F)ccc2cc(O)cc(-c3cc4nc(OC[C@@]56CCCN5C[C@H](F)C6)nc(N5CC6C(=O)NC(=O)C6C5)c4c4cn(C)nc34)c12` (some centres unmarked) [Example 37] had a negative-log IC50 (pIC50) of 5.00 to 7.00. For the same compound, at KRAS WT, the “KRAS^WT NEA” value is recorded as “D (<49% inhibition at 10 μM)”.
For `CCc1c(F)ccc2cc(O)cc(-c3c(F)c4nc(OC[C@@H]5CCCN5C)nc(N5CCOCC(C)(O)C5)c4c4cn(C)nc34)c12` (stereo partly drawn) [Example 154, 4-[4-(8-ethyl-7-fluoro-3-hydroxy-1-naphthyl)-5-fluoro-2-methyl-7-[[(2S)-1-methylpyrrolidin-2-yl]methoxy]pyrazolo[4,3-f]quinazolin-9-yl]-6-methyl-1,4-oxazepan-6-ol], the pIC50 against KRAS G12D and at KRAS WT was at least 8.00 throughout.
As for `C#Cc1c(F)ccc2cc(O)cc(-c3cc4nc(OC[C@@]56CCCN5C[C@H](F)C6)nc(N5CCCC(C)(O)C5)c4c4cn(C)nc34)c12` (stereo partly drawn) [Example 33, 1-[4-(8-ethynyl-7-fluoro-3-hydroxy-1-naphthyl)-2-methyl-7-[[(2R,8S)-2-fluoro-1,2,3,5,6,7-hexahydropyrrolizin-8-yl]methoxy]pyrazolo[4,3-f]quinazolin-9-yl]-3-methyl-piperidin-3-ol], the negative logarithm of the IC50 (pIC50) on KRAS G12D and at KRAS WT was 7.00 to 8.00 throughout.
In the case of `CCc1c(F)ccc2cc(O)cc(-c3c(C)c4nc(OC[C@@H]5CCN5)nc(N5CCOCC(C)(O)C5)c4c4cn(C)nc34)c12` (stereo partly drawn) [Example 144, 4-[4-(8-ethyl-7-fluoro-3-hydroxy-1-naphthyl)-2,5-dimethyl-7-[[(2S)-azetidin-2-yl]methoxy]pyrazolo[4,3-f]quinazolin-9-yl]-6-methyl-1,4-oxazepan-6-ol], the pIC50 on KRAS G12D is at least 8.00; against KRAS WT, 7.00 to 8.00.
`CCc1c(F)ccc2cc(O)cc(-c3c(F)c4nc(OCC5(CN6CC[C@H](F)C6)CC5)nc(N5CCOCC(C)(O)C5)c4c4cn(C)nc34)c12` (stereo partly drawn) [Example 231, 4-[4-(8-ethyl-7-fluoro-3-hydroxy-1-naphthyl)-5-fluoro-2-methyl-7-[[1-[[(3S)-3-fluoropyrrolidin-1-yl]methyl]cyclopropyl]methoxy]pyrazolo[4,3-f]quinazolin-9-yl]-6-methyl-1,4-oxazepan-6-ol]: the pIC50 at KRAS G12D and at KRAS WT was at least 8.00 throughout.
Take `CCc1c(F)ccc2cc(O)cc(-c3cc4nc(OCC56CCCN5CCC6)nc(N5CCOCC(C)(O)C5)c4c4cn(C)nc34)c12` (centres unmarked) [Example 26, 4-[4-(8-ethyl-7-fluoro-3-hydroxy-1-naphthyl)-7-(1,2,3,5,6,7-hexahydropyrrolizin-8-ylmethoxy)-2-methyl-pyrazolo[4,3-f]quinazolin-9-yl]-6-methyl-1,4-oxazepan-6-ol]: the negative logarithm of the IC50 (pIC50) against KRAS G12D and against KRAS WT was at least 8.00 throughout.
Take `CCc1c(F)ccc2cc(O)cc(-c3cc4nc(OC[C@@]56CCCN5C[C@H](F)C6)nc(N5CCCn6nc(C)cc6C5)c4c4cn(C)nc34)c12` [Example 72]: the pIC50 is at least 8.00 against KRAS G12D and 7.00 to 8.00 at KRAS WT.
As to `CCc1c(F)ccc2cc(O)cc(-c3c(C)c4nc(OCC5(CN(C)C)CC5)nc(N5CCOCC(C)(O)C5)c4c4cn(C)nc34)c12` (centres unmarked) [Example 142, 4-[7-[[1-[(dimethylamino)methyl]cyclopropyl]methoxy]-4-(8-ethyl-7-fluoro-3-hydroxy-1-naphthyl)-2,5-dimethyl-pyrazolo[4,3-f]quinazolin-9-yl]-6-methyl-1,4-oxazepan-6-ol], the negative-log IC50 (pIC50) against KRAS G12D and at KRAS WT was at least 8.00 throughout.
For `CCc1c(F)ccc2cc(O)cc(-c3c(C)c4nc(OCC5(CN6CCCC6)CC5)nc(N5CCOCC(C)(O)C5)c4c4cn(C)nc34)c12` (centres unmarked) [Example 146, 4-[4-(8-ethyl-7-fluoro-3-hydroxy-1-naphthyl)-2,5-dimethyl-7-[[1-(pyrrolidin-1-ylmethyl)cyclopropyl]methoxy]pyrazolo[4,3-f]quinazolin-9-yl]-6-methyl-1,4-oxazepan-6-ol], the pIC50 against KRAS G12D and against KRAS WT was at least 8.00 each time.
Take `CCc1c(F)ccc2cc(O)cc(-c3cc4nc(OCC5(CN(C)C)CC5)nc(N5CCCOCC5)c4c4cn(C)nc34)c12` [Example 30, 4-[7-[[1-[(dimethylamino)methyl]cyclopropyl]methoxy]-2-methyl-9-(1,4-oxazepan-4-yl)pyrazolo[4,3-f]quinazolin-4-yl]-5-ethyl-6-fluoro-naphthalen-2-ol]: the negative logarithm of the IC50 (pIC50) on KRAS G12D and at KRAS WT was 7.00 to 8.00 in each case.
Take `CCc1c(F)ccc2cc(O)cc(-c3c(F)c4nc(OCC5(CN(C)C)CC5)nc(N5CCC[C@@](C)(O)C5)c4c4cn(C)nc34)c12` [Example 230, (3R)-1-[7-[[1-[(dimethylamino)methyl]cyclopropyl]methoxy]-4-(8-ethyl-7-fluoro-3-hydroxy-1-naphthyl)-5-fluoro-2-methyl-pyrazolo[4,3-f]quinazolin-9-yl]-3-methyl-piperidin-3-ol]: the negative-log IC50 (pIC50) at KRAS G12D and on KRAS WT was at least 8.00 throughout.

Broadly, the pIC50 is the IC50 on a negative log10 scale, so that one unit is a factor of ten. Read a low pIC50 as a high IC50.

(Values after patent US20260347364A1, “PYRAZOLO[4,3-F]QUINAZOLINE DERIVATIVES AS MODULATORS OF G12D MUTANT KRAS USEFUL FOR THE TREATMENT OF CANCER” (JAZZ PHARMACEUTICALS IRELAND LTD., priority 2023, published 2026).)
